Measurements taken from US10173981B2, “Picolinamides as fungicides” (DOW AGROSCIENCES LLC, priority 2014, dated 2019).
Where two headings read alike, the source gives them in different places.

Columns and labels:
Type in all cases: in vivo
Zymoseptoria tritici = experiment: Fungicidal activity: leaf blotch of wheat (SEPTTR), wheat seedlings; settings: for pest or weed control at 100 ppm: High volume, wheat; for pest or weed control at 121.5 g/ha: Low Volume Cereal Activity at 121.5 g/Ha
Protocol: (§1) All fungicides were evaluated using the aforementioned method for their activity vs. all target diseases, unless stated otherwise. Wheat leaf blotch and brown rust activity were also evaluated using track spray applications, in which case the fungicides were formulated as EC formulations, containing 0.1% Trycol 5941 in the spray solutions. Wheat plants (variety Yuma) were grown from seed in a greenhouse in 50% mineral soil/50% soil-less Metro mix until the first leaf was fully emerged, with 7-10 seedlings per pot. These plants were inoculated with an aqueous spore suspension of Zymoseptoria tritici either prior to or after fungicide treatments. After inoculation the plants were kept in 100% relative humidity (one day in a dark dew chamber followed by two to three days in a lighted dew chamber at 20° C.) to permit spores to germinate and infect the leaf. The plants were then transferred to a greenhouse set at 20° C. for disease to develop. When disease symptoms were fully expressed on the 1st leaves of untreated plants, infection levels were assessed on a scale of 0 to 100 percent disease severity. Percent disease control was calculated using the ratio of disease severity on treated plants relative to untreated plants.

Puccinia triticina = experiment: Fungicidal activity: wheat brown rust (PUCCRT), wheat seedlings; settings: for pest or weed control at 100 ppm: High volume, wheat; for pest or weed control at 121.5 g/ha: Low Volume Cereal Activity at 121.5 g/Ha
Protocol: as §1, with “plants. Example B: Evaluation of Fungicidal Activity: Wheat Brown Rust (Puccinia triticina; Synonym: Puccinia recondita f. sp. tritici; Bayer code PUCCRT) Wheat plants (variety Yuma) were grown from seed in a greenhouse in 50% mineral soil/50% soil-less Metro mix until the first leaf was fully emerged, with 7-10 seedlings per pot. These plants were inoculated with an aqueous spore suspension of Puccinia triticina either prior to or after fungicide treatments. […] The plants were then transferred to a greenhouse set at 24° C. for disease to develop. Fungicide formulation, application and disease assessment followed the procedures as described in the Example A.” for “plants.”

Leptosphaeria nodorum = experiment: Fungicidal activity: wheat glume blotch (LEPTNO), wheat seedlings; settings: Parastagonospora nodorum, 1DP, high volume, read-out: LEPTNO (% control rating)
Venturia inaequalis = experiment: Fungicidal activity: apple scab (VENTIN), apple seedlings; settings: 1DP, high volume, read-out: VENTIN (% control rating)
Cercospora beticola = experiment: Fungicidal activity: leaf spot of sugar beets (CERCBE); settings: 1DP, high volume, sugar beet, read-out: CERCBE (% control rating)
Phakopsora pachyrhizi = experiment: Fungicidal activity: Asian soybean rust (PHAKPA), soybean seedlings; settings: High volume; for pest or weed control at 25 ppm: Phakopsora pachyrhizi
Rhyncosporium secalis = experiment: Fungicidal activity: barley scald (RHYNSE), barley seedlings; settings: Hordeum vulgare, 1DP, high volume, read-out: RHYNSE (% control rating)
Pyricularia oryzae = experiment: whole plant or invertebrate; settings: read-out: PYRIOR (% control rating)
Alternaria solani = experiment: Fungicidal activity: tomato early blight (ALTESO), tomato plants; settings: 1DP, high volume, read-out: ALTESO (% control rating)
[1] = tested on: Colletotrichum lagenarium; experiment: Fungicidal activity: cucumber anthracnose (COLLLA), cucumber seedlings; settings: Colletotrichum orbiculare, 1DP, high volume, read-out: COLLLA (% control rating)
[2] = 24 h, 1 Day Protectant, read-out: SEPTTR 1 DP (Wheat Leaf Blotch, 1 Day Protectant)
[3] = 72 h, 3 Day Curative, read-out: SEPTTR 3 DC (Wheat Leaf Blotch, 3 Day Curative)
[4] = 24 h, 1 Day Protectant, read-out: PUCCRT 1 DP (Wheat Brown Rust, 1 Day Protectant)
[5] = 72 h, 3 Day Curative, read-out: PUCCRT 3 DC (Wheat Brown Rust, 3 Day Curative)
[6] = 24 h, 1 day protectant, read-out: PHAKPA 1 DP (% control rating)
[7] = 72 h, 3 day curative, read-out: PHAKPA 3 DC (% control rating)

With `COc1cc(F)ccc1[C@@H](Oc1ccccc1)[C@H](C)OC(=O)[C@H](C)NC(=O)c1nccc(OC)c1O` [Example 178] as the compound, how does the pest or weed control at 100 ppm (Zymoseptoria tritici; 24 h, 1 day protectant, read-out: SEPTTR 1 DP (% control rating)) read?
Its pest or weed control at 100 ppm is > 80%.

What about the pest or weed control at 100 ppm (Zymoseptoria tritici; 72 h, 3 day curative, read-out: SEPTTR 3 DC (% control rating)) of the same compound?
Its pest or weed control at 100 ppm is > 80%.

And the pest or weed control at 100 ppm (Puccinia triticina; 24 h, 1 day protectant, read-out: PUCCRT 1 DP (% control rating))?
Its pest or weed control at 100 ppm is > 80%.

And the pest or weed control at 100 ppm (Puccinia triticina; 72 h, 3 day curative, read-out: PUCCRT 3 DC (% control rating))?
Its pest or weed control at 100 ppm is < 80%.

With `COc1ccnc(C(=O)N[C@@H](C)C(=O)O[C@@H](C)C(Oc2ccc(F)cc2)c2ccc(F)cc2)c1OC(C)=O` (stereo partly shown) [Example 236] as the compound, how does the pest or weed control at 121.5 g/ha (Zymoseptoria tritici; [2]) read?
The pest or weed control at 121.5 g/ha was > 80%.

What about the pest or weed control at 121.5 g/ha (Zymoseptoria tritici; [3]) of the same compound?
Its pest or weed control at 121.5 g/ha is > 80%.

And the pest or weed control at 121.5 g/ha (Puccinia triticina; [4])?
The pest or weed control at 121.5 g/ha was > 80%.

What about the pest or weed control at 121.5 g/ha (Puccinia triticina; [5]) of the same compound?
The pest or weed control at 121.5 g/ha was > 80%.

And the pest or weed control at 100 ppm (Leptosphaeria nodorum)?
The pest or weed control at 100 ppm was > 80%.

And the pest or weed control at 100 ppm (Venturia inaequalis)?
The pest or weed control at 100 ppm was > 80%.

What about the pest or weed control at 100 ppm (Cercospora beticola) of the same compound?
Its pest or weed control at 100 ppm is > 80%.

And the pest or weed control at 25 ppm (Phakopsora pachyrhizi; [6])?
Its pest or weed control at 25 ppm is > 80%.

What about the pest or weed control at 25 ppm (Phakopsora pachyrhizi; [7]) of the same compound?
The pest or weed control at 25 ppm was < 0%.

And the pest or weed control at 100 ppm (Rhyncosporium secalis)?
The pest or weed control at 100 ppm was > 80%.

And the pest or weed control at 100 ppm (Pyricularia oryzae)?
Its pest or weed control at 100 ppm is > 80%.

What about the pest or weed control at 100 ppm (Alternaria solani) of the same compound?
Its pest or weed control at 100 ppm is < 80%.

And the pest or weed control at 100 ppm [1]?
The pest or weed control at 100 ppm was < 80%.

Which results are given for `COc1cc(C)ccc1[C@@H](Oc1ccccc1)[C@H](C)OC(=O)[C@H](C)NC(=O)c1nccc(OC)c1OC(C)=O` [Example 269]?
pest or weed control at 121.5 g/ha (Zymoseptoria tritici; [2]): > 80%; pest or weed control at 121.5 g/ha (Zymoseptoria tritici; [3]): > 80%; pest or weed control at 121.5 g/ha (Puccinia triticina; [4]): > 80%; pest or weed control at 121.5 g/ha (Puccinia triticina; [5]): > 80%; pest or weed control at 25 ppm (Phakopsora pachyrhizi; [6]): > 80%; pest or weed control at 25 ppm (Phakopsora pachyrhizi; [7]): < 80%

Which results are given for `COc1cc(F)ccc1[C@@H](Oc1ccccc1)[C@H](C)OC(=O)[C@H](C)NC(=O)c1nccc(OC)c1OC(C)=O` [Example 270]?
PHAKPA 1 DP (% control rating) (Phakopsora pachyrhizi; 25 ppm, 1 day protectant): B (≤80); PHAKPA 3 DC (% control rating) (Phakopsora pachyrhizi; 25 ppm, 3 day curative): D (≤0)
